Measurements as given in patent publication US7498421B2, “Degradation fragments” (Medical Research Council, priority 2001, dated 2009).

Tests used:
[1] = test system: porcine carotid artery rings; assay: Isometric force measurement on porcine carotid artery rings
Protocol: Isometric force measurement were performed on porcine carotid artery rings to assess functional parameters during exposure to various compounds. The methods used were those used by J F Clark et al., J. Vasc. Res., 1995, 32. 24-30. KCl induced contraction is used as maximal isometric tension generation and results are reported as percentage of KCl maxima obtained for each carotid.

[2] = Light sensitivity of purified fractions (sunlight, HPLC / 1H NMR); type: physicochemical; settings: sunlight for 90 min
Protocol: The chloroform extract was dissolved in 50% (v/v) aqueous and purified by HPLC. Experiments were conducted so as to exclude light from samples. Hypersil reversed-phase C18 (250×7 mm) or Spherisorb ODS (2) reversed-phase columns (250×4.6 mm) were equilibrated with 30% (v/v) aqueous acetonitrile at a flow rate pf 2 mL min^−1 and 1 mL min^−1, respectively. Elution was performed using 30% to 36% aqueous acetonitrile linear gradient at the same flow rates over 8 min. Fractions were monitored at 320 nm and collected manually. The fractions were freeze dried and stored at −80° C. for further analyses. Each fraction was re-dissolved in 50% (v/v) aqueous acetonitrile, re-injected and re-purified using the same conditions to remove impurities from other fractions. To investigate the light sensitivity of the compounds, purified fractions were exposed to sunlight for 90 min after dissolving 50% (v/v) aqueous and analysed by HLPC.

porcine carotid artery = assay: Oxygen consumption of porcine carotid artery rings (Clark oxygen electrode); settings: concentration of 4-methyl-3-vinylmaleimide not determined
Protocol: Porcine carotid artery were collected from an abattoir within 30 minutes of death, rinsed and immersed in PSS at 4° C., and immediately transported to the laboratory. Arteries were then trimmed of excess connective tissue and adventitia to be stored in PSS at 4° C. until use. The PSS was changed every 12 hours and the vessels were kept for up to 4 days. The PSS contained the following: 118 mmol/L sodium chloride, 25 mmol/L sodium hydrogen carbonate, 5.76 mmol/L potassium chloride, 2.5 mmol/L calcium chloride, 1.2 mmol/L magnesium sulphate, 0.5 mmol/L monobasic sodium phosphate, and 11.1 mmol/L glucose. The solution was oxygenated by bubbling with 95% oxygen and 5% carbon dioxide to maintain a pH of 7.4.
The rate of the oxygen consumption was determined using a Hansatech Instruments (Norfolk, United Kingdom) Clark oxygen electrode. Carotid artery rings approximately 0.2 cm long were vigorously rubbed to remove the endothelial cells and were added to the water-jacketed chambers containing PSS at 37° C. The rates of oxygen consumption were measured before and after the addition of crude mixture of the BR oxidative degradation products (final concentration 1 mg/mL of PSS), CSFSAH (final dilution 1/30) or 4-methyl-3-vinylmaleimide (purified on HPLC, freeze-dried and then re-dissolved in PSS). […]

[3] = Heat stability judged by HPLC; settings: 60° C. for 2 h

1H NMR analysis after sunlight exposure [2] | intensity of HPLC peaks after exposure to sunlight [2] | heat stability [3] | Compound | effect of pre-treatment on tension development induced by ox-BR and CSF-SAH [1] | stimulation of oxygen consumption (in words) (porcine carotid artery)
– | – | – | CC(CCc1ccc(O)cc1)NCCc1ccc(O)c(O)c1 (centres unmarked) [dobutamine] | abrogated | –
degradation to a number of products | significantly decreased | – | C=CC1=C(C)C(=CC(N)=O)NC1=O [Box B, 3-methyl-5-oxo-4-vinyl-(1,5-dihydropyrrol-2-ylidene)acetamide] | – | –
– | significantly decreased | relatively heat-stable | C=CC1=C(C)C(=O)NC1=O [4-methyl-3-vinylmaleimide] | – | stimulated oxygen consumption
degradation to a number of products | significantly decreased | – | C=CC1=C(C)C(=O)NC1=CC(N)=O [Box A, 4-methyl-5-oxo-3-vinyl-(1,5-dihydropyrrol-2-ylidene)acetamide] | – | –
